Columns and labels:
Nf1^+/- mice [1] = test: Contextual fear conditioning; format: in vivo, mouse
Experimental: To examine the effect of leucine on contextual fear memory, mice (wild-type or Nf1^+/− mice) were provided with normal water or leucine supplement water (0.9-3.6 g/Kg) for 7 days prior to testing, which was continued through the entire behavioral task. Mice were subjected to contextual fear conditioning, which was carried out for 6 days with one trial per day. For the first 5 days, mice were placed into the conditioning chamber for 60 sec, then a single foot shock was performed (0.4 mA intensity for 2 sec). After the foot shock, mice were left in the chamber for another 120 sec before returning to their home cage. On the 6th day, mice were placed into the conditioning chamber for 180 sec without foot shock. Freezing responses during the first 10-60 sec of each trial were videotaped and measured using the FreezeScan 2.0 system (CleverSys). Nf1^+/− mice were used to study the effect of leucine on learning and memory, in which the effect was assessed by contextual fear conditioning as described in Materials and Methods. Briefly, wild-type or Nf1^+/− mice were administered water or leucine, as a supplement in water, for 7 days and then subjected to contextual fear conditioning (FIG. 4A). There was no difference in drinking preference for water or leucine solution between WT and Nf1^+/− mice, nor was there difference in weight gain between the two mice (FIG. 4B).

SOD1-G93A mice = test: Animal model of amyotrophic lateral sclerosis (ALS), survival; format: in vivo, mouse; conditions: leucine supplement water 80 mg/day from 120 days old
Experimental: To examine the effect of leucine on ALS, 120 days old mice (wild-type or SOD1-G93A mice) were provided with normal water or leucine supplement water (80 mg/day) until animal died.
SOD1-G93A mouse is an animal model widely used in the art for ALS study. In this example, the SOD1-G93A transgenic mice were used to evaluate the effect of leucine on ALS.

Nf1^+/- neurons = test: Dendritic spine density of wild-type or Nf1^+/- neurons; format: cell-based, mouse
Experimental: For primary neuronal culture, pregnant mice were sacrificed by subjecting to CO2 inhalation, and the fetal pups were isolated and sacrificed by decapitation. Then, cortical neurons were dissociated from the brains of embryonic mice of 18 days. The obtained neurons were cultured in Neurobasal medium, supplemented with 2% B27 supplement, 0.5 mM glutamine, and 12.5 μM glutamate in the density of 260,000 cells/cm^2. The cells were kept in a 5% CO2-humidified chamber at 37° C. Images of neurons were recorded with a confocal microscope (LSM700, Zeiss) equipped with a Plan-Apochromat 63×NA 1.4 oil objective lens (Zeiss) and captured with Zen acquisition and analysis software (Zeiss) at 20-22° C. as a Z-series of 5-12 sections spaced 0.6-0.8 μm apart. The Z-series was then projected into single images. The images were processed with Photoshop (Adobe), with minimal adjustment of brightness or contrast applied to the whole images. To analyze dendritic spine density, the spine number of each dendrite fragment about 20 μm in length, which started from a point 20 μm away from the soma, was manually counted using Image J software. As dendritic spine formation is highly sensitive to culture conditions, each experiment was repeated using the same lot of culture medium. […] To minimize the effects of bias, some of the critical experiments were performed blind by relabeling the samples with the assistance of other lab members.

VCP^R95G-neurons = test: Azidohomoalanine (AHA) labelling of protein synthesis in neurons transfected with wild-type or mutant VCP; format: cell-based, mouse; conditions: leucine for 3 days, AHA label 1 hour
Experimental: FIG. 1A are confocal microscopy images of neurons that are respectively transfected with specified plasmids respectively expressing wild-type (WT) VCP and mutant VCP, and treated with 2.5 mM leucine for three days and labeled with azidohomoalanine (AHA) for 1 hour according to Example 1 of the present disclosure; the transfected neurons are either pointed by arrows or outlined; scale bar presents 20 μm; FIG. 1B is a histogram depicting the relative AHA intensity of neurons that were respectively transfected with specified plasmids, and treated with different concentrations of leucine for three days and labeled with AHA for 1 hour according to Example 1 of the present disclosure; data from three independent experiments are presented as mean plus standard error of mean (SEM); ns, no significance; ***, P<0.001; For primary neuronal culture, pregnant mice were sacrificed by subjecting to CO2 inhalation, and the fetal pups were isolated and sacrificed by decapitation. Then, cortical neurons were dissociated from the brains of embryonic mice of 18 days. The obtained neurons were cultured in Neurobasal medium, supplemented with 2% B27 supplement, 0.5 mM glutamine, and 12.5 μM glutamate in the density of 260,000 cells/cm^2. The cells were kept in a 5% CO2-humidified chamber at 37° C. […]

ATL-1^R95G = test: Dendritic spine density of neurons expressing wild-type or mutant ATL1; format: cell-based, mouse; conditions: mutant ATL1 neurons; 2.5 mM or 5 mM leucine, 3 days; P<0.001
Experimental: For primary neuronal culture, pregnant mice were sacrificed by subjecting to CO2 inhalation, and the fetal pups were isolated and sacrificed by decapitation. Then, cortical neurons were dissociated from the brains of embryonic mice of 18 days. The obtained neurons were cultured in Neurobasal medium, supplemented with 2% B27 supplement, 0.5 mM glutamine, and 12.5 μM glutamate in the density of 260,000 cells/cm^2. The cells were kept in a 5% CO2-humidified chamber at 37° C. Mouse Atl1 was amplified by PCR with a primer set respectively having nucleotide sequences of SEQ ID NOs: 5 and 6. The amplified products were subcloned into the Gw1-Myc2b vector. The […] mutant was generated by site directed mutagenesis with a primer set respectively having nucleotide sequences of SEQ ID NOs: 7 and 8. Images of neurons were recorded with a confocal microscope (LSM700, Zeiss) equipped with a Plan-Apochromat 63×NA 1.4 oil objective lens (Zeiss) and captured with Zen acquisition and analysis software (Zeiss) at 20-22° C. as a Z-series of 5-12 sections spaced 0.6-0.8 μm apart. The Z-series was then projected into single images. […] To analyze dendritic spine density, the spine number of each dendrite fragment about 20 μm in length, which started from a point 20 μm away from the soma, was manually counted using Image J software. […]

Nf1^+/- mice [2] = test: Golgi staining of mouse brains for dendritic spine density; format: in vivo; conditions: Nf1^+/- mice after taking leucine solution
[3] = system: VCP^R95G-expressing neurons; test: Dendritic spine density of neurons transfected with VCP^WT or VCP^R95G plasmids; format: cell-based, mouse
Experimental: For primary neuronal culture, pregnant mice were sacrificed by subjecting to CO2 inhalation, and the fetal pups were isolated and sacrificed by decapitation. Then, cortical neurons were dissociated from the brains of embryonic mice of 18 days. The obtained neurons were cultured in Neurobasal medium, supplemented with 2% B27 supplement, 0.5 mM glutamine, and 12.5 μM glutamate in the density of 260,000 cells/cm^2. The cells were kept in a 5% CO2-humidified chamber at 37° C. The wild-type VCP gene was amplified by PCR using a forward primer having a nucleotide sequence of SEQ ID NO: 1, and a reverse primer having a nucleotide sequence of SEQ ID NO: 2. The amplified DNA segment was subsequently constructed in to GW1-Myc plasmid. To generate the […] mutation, a pair of primers respectively having nucleotide sequences of SEQ ID NOs: 3 and 4 were used in site-directed mutagenesis with wild-type VCP construct as a template. […] Images of neurons were recorded with a confocal microscope (LSM700, Zeiss) equipped with a Plan-Apochromat 63×NA 1.4 oil objective lens (Zeiss) and captured with Zen acquisition and analysis software (Zeiss) at 20-22° C. as a Z-series of 5-12 sections spaced 0.6-0.8 μm apart. […] To analyze dendritic spine density, the spine number of each dendrite fragment about 20 μm in length, which started from a point 20 μm away from the soma, was manually counted using Image J software. […]

Structure (SMILES): CC(C)C[C@H](N)C(=O)O [leucine]
- freezing responses versus WT mice (Nf1^+/- mice [1]; Nf1^+/- mice after leucine administration): comparable to those of WT mice
- associative memory (freezing response) (Nf1^+/- mice [1]; Nf1^+/- mice, leucine supplement water 0.9-3.6 g/Kg, oral): significantly increase the associative memory
- fear memory (freezing response) (Nf1^+/- mice [1]; wild-type mice, leucine supplement water 0.9-3.6 g/Kg, oral): did not further enhance the fear memory
- percentage of survival (SOD1-G93A mice): significantly increased the percentage of survival
- mean survival time (SOD1-G93A mice; control mice 147.3±3.84 days): 172.0 ± 3.96 days
- protrusion number versus wild-type neurons (Nf1^+/- neurons; Nf1^+/- neurons, 2.5 mM leucine): equal to that of wild-type neurons
- dendritic spine formation / dendritic spine number (Nf1^+/- neurons; Nf1^+/- neurons, leucine for 3 days): significantly ameliorated the defect in dendritic spine formation
- number of protrusions (Nf1^+/- neurons; wild-type dendrite fragment, leucine for 3 days): did not further raise the number of protrusions
- AHA intensity (VCP^R95G-neurons): dose-dependently increased the AHA intensity
- dendritic spine number (ATL-1^R95G): significantly increased the dendritic spine number
- dendritic spine density in brain (Nf1^+/- mice [2]): increase in dendritic spine density
- protrusion number of dendrite fragment ([3]; VCP^R95G-dendrite fragment, leucine 2 mM (P<0.01) and 2.5 mM (P<0.001) vs basal, 3 days): significantly increased the protrusion number
- protrusion number of dendrite fragment ([3]; VCP^WT-dendrite fragment, leucine for 3 days): did not produce obvious effect

Reference: patent US20160120831A1, “INCREASE OF PROTEIN SYNTHESIS AMELIORATES SYNAPTOPATHY-RELATED NEUROLOGICAL DISORDERS” (Academia Sinica, priority 2014, published 2016)
